Results reported in patent publication US6495550B2, “Pyridine-substituted benzanilides as potassium ion channel openers” (ICAgen, Inc., priority 1999, dated 2002).

melting point [°C]	SMILES
260 to 263	O=C(Nc1ccc(Cl)nc1)c1cc2ccccc2[nH]1 [Compound 26, 1H-Indole-2-carboxylic acid (6-chloro-pyridin-3-yl)-amide]
193	O=C(Nc1ccc(Cl)nc1)c1ccc([N+](=O)[O-])cc1 [Compound 42, N-(6-Chloro-pyridin-3-yl)-4-nitro-benzamide]
184 to 185	Cc1c(C(=O)Nc2ccc(Cl)nc2)[nH]c2ccccc12 [Compound 23, 3-Methyl-1 H-indole-2-carboxylic acid (6-chloro-pyridin-3-yl)-amide]
193	Nc1ccc(C(=O)Nc2ccc(Cl)nc2)cc1F [Compound 41, 4-Amino-N-(6-chloro-pyridin-3-yl)-3-fluoro-benzamide]
228	O=C(Nc1ccc(Cl)nc1)c1ccc(Cl)nc1 [Compound 7, 6-Chloro-N-(6-chloro-pyridin-3-yl)-nicotinamide]
205	O=C(Nc1ccc(Cl)nc1)c1ccc([N+](=O)[O-])c(F)c1 [Compound 37, N-(6-Chloro-pyridin-3-yl)-3-fluoro-4-nitro-benzamide]
258 to 260	O=C(Nc1ccc(Cl)nc1)c1ccc(NC(=O)c2ccccn2)cc1 [Compound 35, Pyridine-2-carboxylic acid [4-(6-chloro-pyridin-3-ylcarbamoyl)-phenyl]-amide]
188 to 189	O=C(Nc1ccc(Cl)nc1)c1ccc(Cl)c(Cl)c1 [Compound 2, 3,4-Dichloro-N-(6-chloro-pyridin-3-yl)-benzamide]
153 to 154	O=C(Nc1ccc(Cl)nc1)c1cccc(Cl)c1 [Compound 5, 3-Chloro-N-(6-chloro-pyridin-3-yl)-benzamide]
197 to 199	O=C(Nc1ccc(Cl)nc1)c1ccc(Cl)cc1 [Compound 14, N-(6-Chloro-pyridin-3-yl)-4-chloro-benzamide]
227 to 229	O=C(Nc1ccc(Cl)nc1)c1ccc(-c2ccccc2)cc1 [Compound 6, Biphenyl-4-carboxylic acid (6-chloro-pyridin-3-yl)-amide]
210 to 211	O=C(Nc1ccc(Cl)nc1)c1ccc(NCc2ccccn2)c(F)c1 [Compound 33, N-(6-Chloro-pyridin-3-yl)-3-fluoro-4-[(pyridin-2-ylmethyl)-amino]-benzamide]
160	O=C(Nc1ccc(Cl)nc1)c1cccc(F)c1 [Compound 9, N-(6-Chloro-pyridin-3-yl)-3-fluoro-benzamide]
192 to 193	Cc1cc(C(=O)Nc2ccc(Cl)nc2)ccc1[N+](=O)[O-] [Compound 16, N-(6-Chloro-pyridin-3-yl)-3-methyl-4-nitro-benzamide]
163 to 164	O=C(Nc1ccc(Cl)nc1)c1ccccc1 [Compound 25, N-(6-Chloro-pyridin-3-yl)-benzamide]

More lines, now with the values behind:

SMILES	melting point [°C]
O=C(Nc1ccc(Cl)nc1)c1ccc(Cl)s1 [Compound 20, 5-Chloro-thiophene-2-carboxylic acid (6-chloro-pyridin-3-yl)-amide]	215 to 216
O=C(Nc1ccc(Cl)nc1)c1cccc(C(F)(F)F)c1 [Compound 10, N-(6-Chloro-pyridin-3-yl)-3-(trifluoromethyl)-benzamide]	169 to 170
CCc1ccc2[nH]c(C(=O)Nc3ccc(Cl)nc3)cc2c1 [Compound 24, 5-Ethyl-1 H-indole-2-carboxylic acid (6-chloro-pyridin-3-yl)-amide]	270
O=C(Nc1ccc(F)nc1)c1cnc(F)c(F)c1 [Compound 15, 5,6-Difluoro-N-(6-fluoro-pyridin-3-yl)-nicotinamide]	135 to 137
O=C(Nc1ccc(Cl)nc1)c1ccc(Cl)o1 [Compound 21, 5-Chloro-furan-2-carboxylic acid (6-chloro-pyridin-3-yl)-amide]	143 to 144
O=C(Nc1ccc(Cl)nc1)c1cc2cc(Cl)ccc2o1 [Compound 19, 5-Chloro-benzofuran-2-carboxylic acid (6-chloro-pyridin-3-yl)-amide]	222 to 223
O=C(Nc1ccc(Cl)nc1)c1cc2cc(Cl)ccc2[nH]1 [Compound 18, 5-Chloro-1 H-indole-2-carboxylic acid (6-chloro-pyridin-3-yl)-amide]	296
O=C(Nc1ccc(Cl)nc1)c1ccc(N2CCOCC2)c(F)c1 [Compound 31, N-(6-Chloro-pyridin-3-yl)-3-fluoro-4-morpholin-4-yl-benzamide]	228 to 229
O=C(Nc1ccc(Cl)nc1)c1ccc(C(F)(F)F)c(F)c1 [Compound 12, N-(6-Chloro-pyridin-3-yl)-3-fluoro-4-trifluoromethyl-benzamide]	182
O=C(Nc1ccc(Cl)nc1)c1cccc(C(F)(F)F)c1 [Compound 3, N-(6-Chloro-pyridin-3-yl)-3-trifluoromethyl-benzamide]	139 to 140
CN(C)c1ccc(C(=O)Nc2ccc(Cl)nc2)cc1F [Compound 34, N-(6-Chloro-pyridin-3-yl)-4-dimethylamino-3-fluoro-benzamide]	170 to 171
O=C(Nc1ccc(Cl)nc1)c1cc2cc(F)ccc2[nH]1 [Compound 17, 5-Fluoro-1 H-indole-2-carboxylic acid (6-chloro-pyridin-3-yl)-amide]	290
